According to DBAASP:
Converted amounts (≈) assume the structure as drawn.

Columns and labels:
Assay in all cases: ≥ marks a high value that may be exact or a test limit, other limits are often not marked, values filed in µg/mL are converted to µM
[1] = tested on: Candida albicans ATCC 90028
[2] = tested on: Pseudomonas aeruginosa ATCC 27853
[3] = tested on: Enterococcus faecalis ATCC 29212
Escherichia coli IS37# = tested on: Escherichia coli IS37#
[4] = tested on: Candida albicans ATCC 2002
Escherichia coli IS117# = tested on: Escherichia coli IS117#
[5] = tested on: Candida parapsilosis ATCC 22019
[6] = tested on: Staphylococcus aureus ATCC 25923
Escherichia coli IS218# = tested on: Escherichia coli IS218#
[7] = tested on: Escherichia coli ATCC 25922
Shigella dysenteriae = tested on: Shigella dysenteriae
[8] = tested on: Pseudomonas aeruginosa IS350#
[9] = tested on: Enterobacter cloacae ATCC 13047
[10] = tested on: Klebsiella pneumoniae ATCC 700603
[11] = tested on: Pseudomonas aeruginosa CMCCB 1010
[12] = tested on: Pseudomonas aeruginosa Ps6
[13] = tested on: Pseudomonas aeruginosa Ps1
[14] = tested on: Pseudomonas aeruginosa Ps71
[15] = tested on: Pseudomonas aeruginosa TNP004
[16] = tested on: Pseudomonas aeruginosa Ps4
[17] = tested on: Pseudomonas aeruginosa PAO1
[18] = tested on: Pseudomonas aeruginosa PAOLC1-6
[19] = tested on: Pseudomonas aeruginosa Ps2
[20] = tested on: Pseudomonas aeruginosa Ps64
[21] = tested on: Pseudomonas aeruginosa Ps74
[22] = tested on: Pseudomonas aeruginosa Ps21
[23] = tested on: Enterococcus faecium ATCC 700221
[24] = tested on: Staphylococcus aureus ATCC 33591
[25] = tested on: Staphylococcus epidermidis KCTC 3096
[26] = tested on: Bacillus subtilis KCTC 1918
[27] = tested on: Candida albicans TIMM 1768
[28] = tested on: Salmonella typhimurium KCTC 1926
[29] = tested on: Pseudomonas aeruginosa KCTC 1637
[30] = tested on: Trichosporon beigelii KCTC 7707
[31] = tested on: Escherichia coli BW25113 ΔsbmA
Escherichia coli BW25113 = tested on: Escherichia coli BW25113
[32] = tested on: Escherichia coli BW25113 ΔwaaG
[33] = tested on: Staphylococcus aureus PEP 4/3
[34] = tested on: Pseudomonas putida NCIM 2102
Escherichia coli W160-37 = tested on: Escherichia coli W160-37
Bacillus subtilis = tested on: Bacillus subtilis

## CC[C@H](C)[C@@H]1NC(=O)[C@H](C)NC(=O)[C@@H](NC(=O)[C@H](Cc2ccccc2)NC(=O)[C@@H](NC(=O)[C@@H](NC(=O)[C@@H]2CCCN2C(=O)[C@@H](NC(=O)[C@@H](NC(=O)[C@H](CCCCN)NC(=O)CNC(=O)[C@H](CO)NC(=O)[C@@H](NC(=O)[C@H](CS)NC(=O)[C@H](CCC(=O)O)NC(=O)[C@H](CC(C)C)NC(=O)CNC(=O)[C@@H]2CCCN2C(=O)[C@H](CC(C)C)NC(=O)[C@@H](N)Cc2ccccc2)C(C)C)[C@@H](C)CC)C(C)C)[C@@H](C)O)C(C)C)CSSC[C@@H](C(=O)O)NC(=O)[C@H]([C@@H](C)CC)NC(=O)[C@H](CCCN=C(N)N)NC(=O)[C@H]([C@@H](C)O)NC1=O [FLPGLECVSGKIVPTVFCAITRIC]
[1]
  MIC: 3.9 µM (≈ 9.99 µg/mL)
[2]
  MIC: 7.79 µM (≈ 20 µg/mL)
[3]
  MIC: 3.9 µM (≈ 9.99 µg/mL)
Escherichia coli IS37#
  MIC: 7.79 µM (≈ 20 µg/mL)
[4]
  MIC: 1.95 µM (≈ 5 µg/mL)
Escherichia coli IS117#
  MIC: 3.9 µM (≈ 9.99 µg/mL)
[5]
  MIC: 3.9 µM (≈ 9.99 µg/mL)
[6]
  MIC: 1.95 µM (≈ 5 µg/mL)
Escherichia coli IS218#
  MIC: 7.79 µM (≈ 20 µg/mL)
[7]
  MIC: 0.974 µM (≈ 2.5 µg/mL)
Shigella dysenteriae
  MIC: 3.9 µM (≈ 9.99 µg/mL)
[8]
  MIC: 7.79 µM (≈ 20 µg/mL)
[9]
  MIC: 3.9 µM (≈ 9.99 µg/mL)
[10]
  MIC: 1.95 µM (≈ 5 µg/mL)
[11]
  MIC: 1.95 µM (≈ 5 µg/mL)

## NC(=O)[C@H](CCCN=C(N)N)NC(=O)[C@H](CCCN=C(N)N)NC(=O)[C@H](Cc1c[nH]c2ccccc12)NC(=O)[C@H](Cc1ccccc1)NC(=O)[C@H](CCCN=C(N)N)NC(=O)[C@H](CCCN=C(N)N)NC(=O)[C@H](Cc1c[nH]c2ccccc12)NC(=O)[C@@H](N)Cc1ccccc1 [FWRRFWRR]
[12]
  MIC: ≥ 34.3 µM
[13]
  MIC: ≥ 34.3 µM
[14]
  MIC: ≥ 34.3 µM
[15]
  MIC: ≥ 34.3 µM
[16]
  MIC: ≥ 47.7 µM
[17]
  MIC: 34.3 µM (≈ 44.9 µg/mL)
[18]
  MIC: ≥ 34.3 µM
[19]
  MIC: ≥ 135 µM
[20]
  MIC: ≥ 135 µM
[21]
  MIC: ≥ 135 µM
[22]
  MIC: ≥ 135 µM

## CC[C@H](C)[C@H](NC(=O)[C@H](CCCCN)NC(=O)[C@H](CCCCN)NC(=O)[C@H](CC(C)C)NC(=O)[C@H](CC(C)C)NC(=O)[C@H](CCCCN)NC(=O)[C@H](CCCCN)NC(=O)[C@@H](NC(=O)[C@@H](NC(=O)[C@H](CC(=O)O)NC(=O)[C@H](Cc1ccccc1)NC(=O)[C@H](CC(C)C)NC(=O)CN)C(C)C)[C@@H](C)CC)C(=O)NCC(=O)NCC(=O)N[C@@H](CC(C)C)C(N)=O [GLFDVIKKLLKKIGGL]
[2]
  MIC: 12.5 µM (≈ 21.8 µg/mL)
[23]
  MIC: 1.6 µM (≈ 2.79 µg/mL)
[24]
  MIC: 3.1 µM (≈ 5.4 µg/mL)
[7]
  MIC: 6.3 µM (≈ 11 µg/mL)

## CC(C)C[C@H](NC(=O)[C@H](Cc1ccccc1)NC(=O)[C@H](CCCCN)NC(=O)[C@@H]1CCCN1C(=O)[C@H](CCCCN)NC(=O)[C@H](CCCCN)NC(=O)[C@H](CCCCN)NC(=O)[C@H](CCCCN)NC(=O)[C@H](CCCCN)NC(=O)[C@H](CCCCN)NC(=O)[C@H](Cc1c[nH]c2ccccc12)NC(=O)[C@@H](N)CCCCN)C(N)=O [KWKKKKKKPKFL]
[25]
  MIC: 12.5 µM (≈ 19.8 µg/mL)
[26]
  MIC: 6.25 µM (≈ 9.91 µg/mL)
[27]
  MIC: 25 µM (≈ 39.7 µg/mL)
[28]
  MIC: 2.21 µM (≈ 3.5 µg/mL)
[29]
  MIC: 3.12 µM (≈ 4.95 µg/mL)
[30]
  MIC: 25 µM (≈ 39.7 µg/mL)

## CC[C@H](C)[C@H](NC(=O)[C@H](CCCN=C(N)N)NC(=O)[C@@H](N)CCCN=C(N)N)C(=O)N[C@@H](CCCN=C(N)N)C(=O)N1CCC[C@H]1C(=O)N[C@@H](CCCN=C(N)N)C(=O)N1CCC[C@H]1C(=O)N1CCC[C@H]1C(=O)N[C@@H](CCCN=C(N)N)C(=O)N[C@@H](CC(C)C)C(=O)N1CCC[C@H]1C(=O)N[C@@H](CCCN=C(N)N)C(=O)N1CCC[C@H]1C(=O)N[C@@H](CCCN=C(N)N)C(=O)N1CCC[C@H]1C(=O)N[C@@H](CCCN=C(N)N)C(=O)N1CCC[C@H]1C(=O)N[C@@H](CC(C)C)C(=O)N1CCC[C@H]1C(=O)N[C@@H](Cc1ccc(O)cc1)C(=O)N1CCC[C@H]1C(=O)N[C@@H](CCCN=C(N)N)C(=O)N1CCC[C@H]1C(=O)O [RRIRPRPPRLPRPRPRPLPYPRP]
[31]
  MIC: 8 µM (≈ 23.2 µg/mL)
Escherichia coli BW25113
  MIC: 1 µM (≈ 2.9 µg/mL)
[32]
  MIC: 0.5 µM (≈ 1.45 µg/mL)
[7]
  MIC: 1 µM (≈ 2.9 µg/mL)

## CC[C@H](C)[C@H](NC(=O)[C@H](Cc1c[nH]c2ccccc12)NC(=O)[C@H](CCCCN)NC(=O)[C@H](CO)NC(=O)[C@H](CC(C)C)NC(=O)[C@H](Cc1ccccc1)NC(=O)[C@@H](NC(=O)[C@H](CCC(=O)O)NC(=O)[C@H](CC(C)C)NC(=O)[C@H](CC(C)C)NC(=O)[C@H](CCCCN)NC(=O)[C@@H]1CCCN1C(=O)[C@H](CC(N)=O)NC(=O)[C@H](C)NC(=O)[C@H](CC(C)C)NC(=O)[C@H](CCCN=C(N)N)NC(=O)[C@H](CC(N)=O)NC(=O)[C@H](C)NC(=O)[C@H](CC(C)C)NC(=O)[C@H](CCCCN)NC(=O)[C@H](C)NC(=O)[C@H](Cc1ccc(O)cc1)NC(=O)[C@H](CCCN=C(N)N)NC(=O)[C@H](CO)NC(=O)[C@H](CC(C)C)NC(=O)[C@@H](N)CO)[C@@H](C)O)C(=O)NCC(=O)O [SLSRYAKLANRLANPKLLETFLSKWIG]
[33]
  MIC: 14.5 µM (≈ 44.7 µg/mL)
[34]
  MIC: 17.7 µM (≈ 54.8 µg/mL)
Escherichia coli W160-37
  MIC: 4.58 µM (≈ 14.1 µg/mL)
Bacillus subtilis
  MIC: 4.58 µM (≈ 14.1 µg/mL)
